Results on 64 molecules are retold here after patent US20050009840A1 (SUGEN, INC., priority 2003, published 2005).

T1 sequence (P08581 974-1390 limits assumed): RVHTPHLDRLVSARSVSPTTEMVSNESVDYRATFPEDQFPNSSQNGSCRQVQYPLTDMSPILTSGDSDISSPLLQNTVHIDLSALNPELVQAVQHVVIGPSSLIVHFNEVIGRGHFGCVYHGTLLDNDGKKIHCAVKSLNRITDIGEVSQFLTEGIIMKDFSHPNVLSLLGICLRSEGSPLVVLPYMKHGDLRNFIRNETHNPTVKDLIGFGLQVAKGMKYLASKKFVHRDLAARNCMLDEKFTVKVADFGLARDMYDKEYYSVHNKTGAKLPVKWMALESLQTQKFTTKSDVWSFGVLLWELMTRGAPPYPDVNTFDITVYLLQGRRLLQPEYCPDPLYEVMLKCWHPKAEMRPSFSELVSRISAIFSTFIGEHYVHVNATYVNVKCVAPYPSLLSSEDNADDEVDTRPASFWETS

The first assay addresses T1, HGFR (Homo sapiens, UniProt P08581).
T1 construct: purchased Upstate 14-526
Put plainly: HGFR continuous-coupled spectrophotometric assay. To be noted: Table 3, column 'Ki (μM) or I (%)': cells without % sign; read-out: Ki. The class given is biochemical.
Take `C=Cc1cnc(N)c(OC(C)c2c(Cl)ccc(F)c2Cl)c1` (stereo not shown) [Example I-606, 3-[1-(2,6-Dichloro-3-fluoro-phenyl)-ethoxy]-5-vinyl-pyridin-2-ylamine]: the inhibition constant Ki was 0.655 µM.

Still in this assay, the particulars now being: at 1 pM; Table 6, library procedure 41; read-out: % Inhibition (percent c-MET inhibition).
For `Nc1ncc(C(=O)N2CCCN(Cc3ccc(F)cc3)CC2)cc1OCc1c(Cl)cccc1Cl` [Example L-277], the inhibition at 1 pM amounted to 26%.

On to `Nc1ncc(C(=O)NCc2ccccc2Br)cc1OCc1c(Cl)cccc1Cl` [Example L-197], for which the inhibition at 1 pM came to 36%.

As for `CN1CCN(C(=O)c2cnc(N)c(OCc3c(Cl)cccc3Cl)c2)CC1` [Example L-205], the inhibition at 1 pM came out at 32%.

In the case of `Nc1ncc(C(=O)N[C@@H]2c3ccccc3C[C@@H]2O)cc1OCc1c(Cl)cccc1Cl` [Example L-230], the inhibition at 1 pM came to 23%.

Regarding `Nc1ncc(C(=O)N2CCC3(CC2)CC(N2CCC(O)CC2)CO3)cc1OCc1c(Cl)cccc1Cl` [Example L-320], the inhibition at 1 pM was found to be 28%.

For `Nc1ncc(C(=O)N2CCC(O)(CN3CCCC3=O)C2)cc1OCc1c(Cl)cccc1Cl` [Example L-337], the inhibition at 1 pM was found to be 20%.

For `Nc1ncc(C(=O)NCCc2c[nH]c3ccc(O)cc23)cc1OCc1c(Cl)cccc1Cl` [Example L-223], the inhibition at 1 pM stood at 29%.

As to `Nc1ncc(C(=O)NC2COC3(CCN(Cc4ccncc4)CC3)C2)cc1OCc1c(Cl)cccc1Cl` [Example L-336], the inhibition at 1 pM was 20%.

Regarding `Nc1ncc(C(=O)NCc2ccc(F)cc2F)cc1OCc1c(Cl)cccc1Cl` [Example L-245], the inhibition at 1 pM was determined as 33%.

`Nc1ncc(C(=O)NC2COC3(CCN(c4ncccn4)CC3)C2)cc1OCc1c(Cl)cccc1Cl` [Example L-332]: the inhibition at 1 pM is 21%.

For the molecule `Nc1ncc(C(=O)NCc2ccc(S(N)(=O)=O)cc2)cc1OCc1c(Cl)cccc1Cl` [Example L-178], the inhibition at 1 pM was 30%.

As for `Nc1ncc(C(=O)NCc2noc(C(=O)N3CC[C@H](O)C3)n2)cc1OCc1c(Cl)cccc1Cl` [Example L-327], the inhibition at 1 pM is 26%.

As to `Nc1ncc(C(=O)NCc2cc3cc[nH]c3cn2)cc1OCc1c(Cl)cccc1Cl` [Example L-275], the inhibition at 1 pM worked out at 28%.

With `Cc1ccc2c(c1)C(NC(=O)c1cnc(N)c(OCc3c(Cl)cccc3Cl)c1)CCO2` [Example L-311], the inhibition at 1 pM is 17%.

Regarding `Nc1ncc(C(=O)N2CCC(O)CC2)cc1OCc1c(Cl)cccc1Cl` [Example L-194], the inhibition at 1 pM came to 35%.

As to `Nc1ncc(C(=O)NCC2COc3ccccc3O2)cc1OCc1c(Cl)cccc1Cl` [Example L-234], the inhibition at 1 pM stood at 34%.

The same assay, now with this note: at 1 pM; Table 7, library procedure 42; read-out: % Inhibition (percent c-MET inhibition).
As to `CC(Oc1cc(-c2ccc(C(=O)N3CCC(N4CCCC4)CC3)cc2)cnc1N)c1ccccc1C(F)(F)F` (stereo not shown), the inhibition at 1 pM was found to be 21%.

With `Nc1ncc(-c2ccc(C(=O)N3CCC(N4CCCC4)CC3)cc2)cc1OCc1cccc2cccnc12`, the inhibition at 1 pM worked out at 22%.

Consider `N#Cc1cccc(COc2cc(-c3ccc(C(=O)N4CCC(N5CCCC5)CC4)cc3)cnc2N)c1`, for which the inhibition at 1 pM came out at 12%.

For the molecule `CC(C)Cc1noc(COc2cc(-c3ccc(C(=O)N4CCC(N5CCCC5)CC4)cc3)cnc2N)n1`, the inhibition at 1 pM worked out at 12%.

For `Nc1ncc(-c2ccc(C(=O)N3CCC(N4CCCC4)CC3)cc2)cc1OCc1ncc(C(F)(F)F)cc1Cl`, the inhibition at 1 pM was 8%.

In the case of `Cn1c(COc2cc(-c3ccc(C(=O)N4CCC(N5CCCC5)CC4)cc3)cnc2N)nc2ccccc21`, the inhibition at 1 pM stood at 10%.

Turning to `Nc1ncc(-c2ccc(C(=O)N3CCC(N4CCCC4)CC3)cc2)cc1OCc1ccc(F)c(F)c1`, the inhibition at 1 pM is 19%.

As for `Nc1ncc(-c2ccc(C(=O)N3CCC(N4CCCC4)CC3)cc2)cc1OCc1cc(-c2c(Cl)cccc2Cl)no1`, the inhibition at 1 pM was 14%.

For the molecule `Nc1ncc(-c2ccc(C(=O)N3CCC(N4CCCC4)CC3)cc2)cc1OCc1nc(-c2cccc(C(=O)Nc3ccc(F)cc3)c2)no1`, the inhibition at 1 pM was found to be 64%.

`Nc1ncc(-c2ccc(C(=O)N3CCC(N4CCCC4)CC3)cc2)cc1OCc1nc2ccccc2[nH]1`: the inhibition at 1 pM came to 4%.

As to `Nc1ncc(-c2ccc(C(=O)N3CCC(N4CCCC4)CC3)cc2)cc1OCc1ccc(Cl)cc1`, the inhibition at 1 pM came to 15%.

As for `Nc1ncc(-c2ccc(C(=O)N3CCC(N4CCCC4)CC3)cc2)cc1OCc1ccc2ccccc2c1`, the inhibition at 1 pM is 27%.

As for `Nc1ncc(-c2ccc(C(=O)N3CCC(N4CCCC4)CC3)cc2)cc1OCc1ccccn1`, the inhibition at 1 pM was 16%.

As to `Nc1ncc(-c2ccc(C(=O)N3CCC(N4CCCC4)CC3)cc2)cc1OCc1csc(-c2ccc(Cl)cc2)n1`, the inhibition at 1 pM came to 9%.

`Nc1ncc(-c2ccc(C(=O)N3CCC(N4CCCC4)CC3)cc2)cc1OCc1ccc(C(F)(F)F)cc1`: the inhibition at 1 pM was 10%.

Turning to `Cc1noc(C)c1COc1cc(-c2ccc(C(=O)N3CCC(N4CCCC4)CC3)cc2)cnc1N`, the inhibition at 1 pM was found to be 10%.

`Nc1ncc(-c2ccc(C(=O)N3CCC(N4CCCC4)CC3)cc2)cc1OCc1cc(C(F)(F)F)cc(C(F)(F)F)c1`: the inhibition at 1 pM was 14%.

As to `Nc1ncc(-c2ccc(C(=O)N3CCC(N4CCCC4)CC3)cc2)cc1OCc1ccccc1OC(F)F`, the inhibition at 1 pM is 27%.

In the case of `Nc1ncc(-c2ccc(C(=O)N3CCC(N4CCCC4)CC3)cc2)cc1OC1OC(=O)c2ccccc21` (stereo not shown), the inhibition at 1 pM amounted to 4%.

The assay is the same for the next values; noted with them: at 50 nM; Table 5, library procedure 40; read-out: % inhibition (percent c-MET inhibition).
In the case of `CCNC(=O)c1ccc(-c2cnc(N)c(OC(C)c3c(Cl)ccc(F)c3Cl)c2)cc1` [Example L-167], the inhibition at 0.05 µM was determined as 66%.

Take `CC(CO)NC(=O)c1ccc(-c2cnc(N)c(OC(C)c3c(Cl)ccc(F)c3Cl)c2)cc1` [Example L-7]: the inhibition at 0.05 µM was determined as 66%.

Consider `CC(Oc1cc(-c2ccc(C(=O)NCCN(C)C3CCCCC3)cc2)cnc1N)c1c(Cl)ccc(F)c1Cl` [Example L-171], for which the inhibition at 0.05 µM amounted to 69%.

Consider `CC(Oc1cc(-c2ccc(C(=O)NCC(C)(C)CO)cc2)cnc1N)c1c(Cl)ccc(F)c1Cl` [Example L-50], for which the inhibition at 0.05 µM came out at 73%.

On to `CC(Oc1cc(-c2ccc(C(=O)N3CCC(Oc4ccccc4)CC3)cc2)cnc1N)c1c(Cl)ccc(F)c1Cl` [Example L-151], for which the inhibition at 0.05 µM was 58%.

Turning to `CC(Oc1cc(-c2ccc(C(=O)N3CCC(c4cccnc4)C3)cc2)cnc1N)c1c(Cl)ccc(F)c1Cl` [Example L-161], the inhibition at 0.05 µM turned out to be 79%.

Consider `CCOC(=O)N1CCC(NC(=O)c2ccc(-c3cnc(N)c(OC(C)c4c(Cl)ccc(F)c4Cl)c3)cc2)CC1` [Example L-52], for which the inhibition at 0.05 µM amounted to 66%.

For `CCOC(=O)C1CCN(C(=O)c2ccc(-c3cnc(N)c(OC(C)c4c(Cl)ccc(F)c4Cl)c3)cc2)CC1` [Example L-86], the inhibition at 0.05 µM turned out to be 57%.

With `CC(Oc1cc(-c2ccc(C(=O)NCCc3cccnc3)cc2)cnc1N)c1c(Cl)ccc(F)c1Cl` [Example L-133], the inhibition at 0.05 µM is 68%.

With `CC(Oc1cc(-c2ccc(C(=O)N3CCN(c4ccncc4)CC3)cc2)cnc1N)c1c(Cl)ccc(F)c1Cl` [Example L-89], the inhibition at 0.05 µM amounted to 96%.

Regarding `CC(Oc1cc(-c2ccc(C(=O)NCCc3ccccn3)cc2)cnc1N)c1c(Cl)ccc(F)c1Cl` [Example L-11], the inhibition at 0.05 µM is 67%.

Consider `CC(C)NC(=O)c1ccc(-c2cnc(N)c(OC(C)c3c(Cl)ccc(F)c3Cl)c2)cc1` [Example L-110], for which the inhibition at 0.05 µM came out at 71%.

For `CCOC(=O)CN1CCN(C(=O)c2ccc(-c3cnc(N)c(OC(C)c4c(Cl)ccc(F)c4Cl)c3)cc2)CC1` [Example L-68], the inhibition at 0.05 µM is 70%.

Consider `CC(Oc1cc(-c2ccc(C(=O)NC(CO)c3cccnc3)cc2)cnc1N)c1c(Cl)ccc(F)c1Cl` [Example L-164], for which the inhibition at 0.05 µM came to 61%.

As to `CC(Oc1cc(-c2ccc(C(=O)N(C)C)cc2)cnc1N)c1c(Cl)ccc(F)c1Cl` [Example L-125], the inhibition at 0.05 µM was found to be 77%.

With `CC(C)CN(C)C(=O)c1ccc(-c2cnc(N)c(OC(C)c3c(Cl)ccc(F)c3Cl)c2)cc1` [Example L-143], the inhibition at 0.05 µM amounted to 59%.

On to `CCN(CC)C(=O)C1CCCN(C(=O)c2ccc(-c3cnc(N)c(OC(C)c4c(Cl)ccc(F)c4Cl)c3)cc2)C1` [Example L-44], for which the inhibition at 0.05 µM was 55%.

Take `CC(Oc1cc(-c2ccc(C(=O)N3CCN(CC(=O)N(C)C)CC3)cc2)cnc1N)c1c(Cl)ccc(F)c1Cl` [Example L-146]: the inhibition at 0.05 µM is 89%.

Turning to `COc1ccc(CNC(=O)c2ccc(-c3cnc(N)c(OC(C)c4c(Cl)ccc(F)c4Cl)c3)cc2)cc1OC` [Example L-34], the inhibition at 0.05 µM is 62%.

The same assay, now with this note: at 1 μM; Table 8, library procedure 43; read-out: % Inhibition (percent c-MET inhibition).
Regarding `CC1CN(C(=O)c2ccc(-c3cnc(N)c(OCc4ccc(F)c(F)c4F)c3)cc2)CC(C)N1` (stereo not shown), the inhibition at 1 µM was 25%.

In the case of `CC1CN(C(=O)c2ccc(-c3cnc(N)c(OCc4nc(-c5ccccn5)no4)c3)cc2)CC(C)N1` (stereo not shown), the inhibition at 1 µM is 15%.

Consider `CC1CN(C(=O)c2ccc(-c3cnc(N)c(OCc4ccc(C(F)(F)F)cc4F)c3)cc2)CC(C)N1` (stereo not shown), for which the inhibition at 1 µM is 24%.

As for `CC1CN(C(=O)c2ccc(-c3cnc(N)c(OCc4nnnn4Cc4ccccc4)c3)cc2)CC(C)N1` (stereo not shown), the inhibition at 1 µM came to 15%.

Regarding `CC1CN(C(=O)c2ccc(-c3cnc(N)c(OCc4cccc(Br)c4)c3)cc2)CC(C)N1` (stereo not shown), the inhibition at 1 µM was found to be 21%.

On to `CC1CN(C(=O)c2ccc(-c3cnc(N)c(OCc4ccc(Cl)cc4Br)c3)cc2)CC(C)N1` (stereo not shown), for which the inhibition at 1 µM turned out to be 29%.

As for `CC1CN(C(=O)c2ccc(-c3cnc(N)c(OCc4ccc(-c5ccccc5C#N)cc4)c3)cc2)CC(C)N1` (stereo not shown), the inhibition at 1 µM stood at 73%.

The same assay, now with this note: cells prefixed Ki; read-out: Met Ki.
With `CC(C)NC(=O)C#Cc1cnc(N)c(OC(C)c2c(Cl)ccc(F)c2Cl)c1` (stereo not shown) [Example I-440, 3-{6-Amino-5-[1-(2,6-dichloro-3-fluoro-phenyl)-ethoxy]-pyridin-3-yl}-propynoic acid isopropylamide], the Ki is 0.43 µM.

For the molecule `CC(C)Oc1c(F)cccc1COc1cc(-c2ccc(C(=O)N3C[C@@H](C)N[C@@H](C)C3)cc2)cnc1N` [Example I-473, {4-[6-Amino-5-(3-fluoro-2-isopropoxy-benzyloxy)-pyridin-3-yl]-phenyl}-((3R,5S)-3,5-dimethyl-piperazin-1-yl)-methanone], the Ki came to 12.7 µM.
